Patent US20230278995A1, “1,3,4-OXADIAZOLE DERIVATIVE COMPOUNDS AS HISTONE DEACETYLASE 6 INHIBITOR, AND THE PHARMACEUTICAL COMPOSITION COMPRISING THE SAME” (CHONG KUN DANG PHARMACEUTICAL CORP., priority 2020, published 2023)

Assays:
[1] = molecular target: T1, human recombinant HDAC1 (Homo sapiens, UniProt Q13547); assay: HDAC enzyme activity inhibition assay (HDAC Fluorimetric Drug Discovery Kit), HDAC1; assay type: biochemical; settings: human recombinant HDAC1, Fluor de Lys-SIRT1 substrate, 30° C. 60 minutes
T1 construct: purchased Enzo Life Sciences, Inc. BML-SE456
T1 sequence (Q13547 whole entry): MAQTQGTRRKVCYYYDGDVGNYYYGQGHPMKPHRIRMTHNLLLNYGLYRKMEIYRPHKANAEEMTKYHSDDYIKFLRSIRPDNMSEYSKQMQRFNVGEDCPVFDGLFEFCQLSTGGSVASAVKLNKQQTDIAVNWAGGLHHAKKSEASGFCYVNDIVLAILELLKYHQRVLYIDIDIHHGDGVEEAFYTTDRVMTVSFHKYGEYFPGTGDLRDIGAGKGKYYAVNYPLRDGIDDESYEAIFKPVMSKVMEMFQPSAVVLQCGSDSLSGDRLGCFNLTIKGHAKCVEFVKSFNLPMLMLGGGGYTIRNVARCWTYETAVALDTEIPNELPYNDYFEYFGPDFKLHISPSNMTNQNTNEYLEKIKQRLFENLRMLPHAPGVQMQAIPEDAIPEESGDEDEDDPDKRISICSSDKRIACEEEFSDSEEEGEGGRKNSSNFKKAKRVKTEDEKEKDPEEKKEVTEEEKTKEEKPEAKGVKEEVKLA
Description: (§1) For the HDAC1 enzyme activity test, human recombinant HDAC1 (BML-SE456) was used as an enzyme source and Fluor de Lys©-SIRT1 (BNL-K1177) was used as a substrate. After dispensing 5-fold diluted compounds into a 96-well plate, 0.3 μg of enzyme and 10 μM substrate were added to each well of the plate and allowed to react at 30° C. for 60 minutes. Next, Fluor de Lys© Developer II (BML-K1176) was added and reacted for 30 minutes to complete the reaction, and then the fluorescence values (Ex 360, Em 460) were measured using a multi-plate reader (Flexstation 3, Molecular Device). The HDAC6 enzymes were tested using human recombinant HDAC6 (382180) from Calbiochem Inc., according to the same protocol as the HDAC1 enzyme activity test method. With respect to the final result values, respective IC50 values were calculated using GraphPad Prism 4.0 program (Table 2).

[2] = molecular target: T2, human recombinant HDAC6 (Homo sapiens, UniProt Q9UBN7); assay: HDAC enzyme activity inhibition assay (HDAC Fluorimetric Drug Discovery Kit), HDAC6; assay type: biochemical; settings: for HDAC6 selectivity (fold): HDAC1 vs HDAC6; for IC50: human recombinant HDAC6, same protocol as HDAC1
T2 construct: purchased Calbiochem Inc. 382180
T2 sequence (Q9UBN7 1-1215): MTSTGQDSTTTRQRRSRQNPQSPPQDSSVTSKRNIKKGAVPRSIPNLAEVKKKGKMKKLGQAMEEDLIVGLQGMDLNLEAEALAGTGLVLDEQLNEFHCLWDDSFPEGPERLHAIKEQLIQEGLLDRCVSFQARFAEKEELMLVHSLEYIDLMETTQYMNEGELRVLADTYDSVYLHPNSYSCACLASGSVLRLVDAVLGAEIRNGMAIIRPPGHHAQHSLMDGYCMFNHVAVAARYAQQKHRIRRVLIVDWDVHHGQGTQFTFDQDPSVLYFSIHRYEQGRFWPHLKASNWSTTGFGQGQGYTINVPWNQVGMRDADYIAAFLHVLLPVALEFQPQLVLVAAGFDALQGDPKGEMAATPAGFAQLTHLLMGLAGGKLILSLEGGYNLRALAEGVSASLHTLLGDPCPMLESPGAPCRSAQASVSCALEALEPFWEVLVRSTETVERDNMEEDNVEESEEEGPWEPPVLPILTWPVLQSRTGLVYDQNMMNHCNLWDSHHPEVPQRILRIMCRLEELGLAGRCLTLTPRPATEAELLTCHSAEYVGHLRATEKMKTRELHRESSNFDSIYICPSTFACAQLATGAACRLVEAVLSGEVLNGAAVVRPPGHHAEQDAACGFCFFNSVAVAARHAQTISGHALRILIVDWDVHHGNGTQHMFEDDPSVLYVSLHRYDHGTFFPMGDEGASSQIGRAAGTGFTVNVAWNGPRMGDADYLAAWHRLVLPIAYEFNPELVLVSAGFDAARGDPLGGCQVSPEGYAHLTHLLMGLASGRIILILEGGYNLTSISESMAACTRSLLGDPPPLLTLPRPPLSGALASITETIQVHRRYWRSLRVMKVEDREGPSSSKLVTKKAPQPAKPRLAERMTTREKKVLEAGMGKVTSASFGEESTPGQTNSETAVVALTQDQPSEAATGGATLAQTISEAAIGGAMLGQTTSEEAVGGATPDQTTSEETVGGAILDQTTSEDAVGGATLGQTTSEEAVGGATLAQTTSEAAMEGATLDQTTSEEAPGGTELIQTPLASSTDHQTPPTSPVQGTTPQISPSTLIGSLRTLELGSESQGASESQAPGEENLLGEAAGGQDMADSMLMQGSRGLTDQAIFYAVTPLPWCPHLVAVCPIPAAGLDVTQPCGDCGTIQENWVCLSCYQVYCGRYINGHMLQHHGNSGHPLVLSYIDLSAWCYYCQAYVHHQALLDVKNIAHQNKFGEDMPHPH
Description: as §1

IC50 [1]	HDAC6 selectivity (fold) [2]	IC50 [2]	Structure (SMILES)
> 50 µM	1,506 fold	0.0332 µM	CCCC(=O)N1CC(F)(C(=O)N(Cc2ccc(-c3nnc(C(F)F)o3)cn2)c2ccccc2)C1 [Compound 3154, 1-butyryl-N-((5-(5-(difluoromethyl)-1,3,4-oxadiazol-2-yl)pyridin-2-yl)methyl)-3-fluoro-N-phenylazetidine-3-carboxamide]
> 50 µM	771 fold	0.0648 µM	CN1CC(N2CC(F)(C(=O)N(Cc3ccc(-c4nnc(C(F)F)o4)cn3)c3ccccc3)C2)C1 [Compound 3105, N-((5-(5-(difluoromethyl)-1,3,4-oxadiazol-2-yl)pyridin-2-yl)methyl)-3-fluoro-1′-methyl-N-phenyl-[1,3′-biazetidine]-3-carboxamide]
36.6 µM	1,695 fold	0.0216 µM	CCN1CCC(N2CC(F)(C(=O)N(Cc3ccc(-c4nnc(C(F)F)o4)cn3)c3cccc(F)c3)C2)CC1 [Compound 3400, N-((5-(5-(difluoromethyl)-1,3,4-oxadiazol-2-yl)pyridin-2-yl)methyl)-1-(1-ethylpiperidin-4-yl)-3-fluoro-N-(3-fluorophenyl)azetidine-3-carboxamide]
> 50 µM	2,032 fold	0.0246 µM	CN(C)CCC(=O)N1CC(F)(C(=O)N(Cc2ccc(-c3nnc(C(F)F)o3)cn2)c2ccccc2)C1 [Compound 3006, N-((5-(5-(difluoromethyl)-1,3,4-oxadiazol-2-yl)pyridin-2-yl)methyl)-1-(3-(dimethylamino)propanoyl)-3-fluoro-N-phenylazetidine-3-carboxamide]
> 50 µM	967 fold	0.0517 µM	CCN1CCC(F)(C(=O)N(Cc2ccc(-c3nnc(C(F)F)o3)cn2)c2cccc(F)c2)CC1 [Compound 3443, N-((5-(5-(difluoromethyl)-1,3,4-oxadiazol-2-yl)pyridin-2-yl)methyl)-1-ethyl-4-fluoro N-(3-fluorophenyl)piperidine-4-carboxamide]
26.1 µM	917 fold	0.0284 µM	CC(C)CN1CC(F)(C(=O)N(Cc2ccc(-c3nnc(C(F)F)o3)cn2)c2ccccc2)C1 [Compound 3004, N-((5-(5-(difluoromethyl)-1,3,4-oxadiazol-2-yl)pyridin-2-yl)methyl)-3-fluoro-1-isobutyl-N-phenylazetidine-3-carboxamide]
26.6 µM	734 fold	0.0362 µM	O=C(N(Cc1ccc(-c2nnc(C(F)F)o2)cn1)c1cccc(F)c1)C1(F)CN(C2CCN(C3COC3)CC2)C1 [Compound 3406, N-((5-(5-(difluoromethyl)-1,3,4-oxadiazol-2-yl)pyridin-2-yl)methyl)-3-fluoro-N-(3-fluorophenyl)-1-(1-(oxetan-3-yl)piperidin-4-yl)azetidine-3-carboxamide]
23.7 µM	1,022 fold	0.0232 µM	O=C(N(Cc1ccc(-c2nnc(C(F)F)o2)cn1)c1cccc(F)c1)C1(F)CN(C2CN(C3CCOC3)C2)C1 (stereo not shown) [Compound 3397, N-((5-(5-(difluoromethyl)-1,3,4-oxadiazol-2-yl)pyridin-2-yl)methyl)-3-fluoro-N-(3-fluorophenyl)-1′-(tetrahydrofuran-3-yl)-[1,3′-biazetidine]-3-carboxamide]
> 50 µM	600 fold	0.0833 µM	O=C(N(Cc1ccc(-c2nnc(C(F)F)o2)cn1)c1ccccc1)C1(F)CCN(C2CC3(COC3)C2)CC1 [Compound 2995, N-((5-(5-(difluoromethyl)-1,3,4-oxadiazol-2-yl)pyridin-2-yl)methyl)-4-fluoro-N-phenyl-1-(2-oxaspiro[3.3]heptan-6-yl)piperidine-4-carboxamide]
> 50 µM	624 fold	0.0801 µM	CCN1CC(F)(C(=O)N(Cc2ccc(-c3nnc(C(F)F)o3)cc2F)c2ccccc2)C1 [Compound 3430, N-(4-(5-(difluoromethyl)-1,3,4-oxadiazol-2-yl)-2-fluorobenzyl)-1-ethyl-3-fluoro-N-phenylazetidine-3-carboxamide]
> 50 µM	931 fold	0.0537 µM	CCN1CCC(N2CC(F)(C(=O)N(Cc3ccc(-c4nnc(C(F)F)o4)cn3)c3ccccc3)C2)CC1 [Compound 3111, N-((5-(5-(difluoromethyl)-1,3,4-oxadiazol-2-yl)pyridin-2-yl)methyl)-1-(1-ethylpiperidin-4-yl)-3-fluoro-N-phenylazetidine-3-carboxamide]
> 50 µM			COCCC(=O)N1CC(F)(C(=O)N(Cc2ccc(-c3nnc(C(F)F)o3)cn2)c2cccc(F)c2)C1 [Compound 3167, N-((5-(5-(difluoromethyl)-1,3,4-oxadiazol-2-yl)pyridin-2-yl)methyl)-3-fluoro-N-(3-fluorophenyl)-1-(3-methoxypropanoyl)azetidine-3-carboxamide]
18.5 µM	237 fold	0.078 µM	CC(C)N1CC(F)(C(=O)N(Cc2ccc(-c3nnc(C(F)F)o3)cn2)c2cccc(F)c2)C1 [Compound 3048, N-((5-(5-(difluoromethyl)-1,3,4-oxadiazol-2-yl)pyridin-2-yl)methyl)-3-fluoro-N-(3-fluorophenyl)-1-isopropylazetidine-3-carboxamide]
> 50 µM	2,066 fold	0.0242 µM	CCCC(=O)N1CC(F)(C(=O)N(Cc2ccc(-c3nnc(C(F)F)o3)cn2)c2cccc(F)c2)C1 [Compound 3165, 1-butyryl-N-((5-(5-(difluoromethyl)-1,3,4-oxadiazol-2-yl)pyridin-2-yl)methyl)-3-fluoro-N-(3-fluorophenyl)azetidine-3-carboxamide]
31.5 µM	1,569 fold	0.0201 µM	O=C(N(Cc1ccc(-c2nnc(C(F)F)o2)cn1)c1cccc(F)c1)C1(F)CN(C2CN(C3CCOCC3)C2)C1 [Compound 3399, N-((5-(5-(difluoromethyl)-1,3,4-oxadiazol-2-yl)pyridin-2-yl)methyl)-3-fluoro-N-(3-fluorophenyl)-1′-(tetrahydro-2H-pyran-4-yl)-[1,3′-biazetidine]-3-carboxamide]
> 20 µM			O=C(N(Cc1ccc(-c2nnc(C(F)F)o2)cc1F)c1ccccc1)C1(F)CCN(C2CCC2)CC1 [Compound 2868, 1-cyclobutyl-N-(4-(5-(difluoromethyl)-1,3,4-oxadiazol-2-yl)-2-fluorobenzyl)-4-fluoro-N-phenylpiperidine-4-carboxamide]
> 50 µM			O=C(N1CCC(F)(C(=O)N(Cc2ccc(-c3nnc(C(F)F)o3)cc2F)c2ccccc2)CC1)C(F)(F)F [Compound 3441, N-(4-(5-(difluoromethyl)-1,3,4-oxadiazol-2-yl)-2-fluorobenzyl)-4-fluoro-N-phenyl-1-(2,2,2-trifluoroacetyl)piperidine-4-carboxamide]
> 50 µM			O=C(N(Cc1ccc(-c2nnc(C(F)F)o2)cn1)c1cccc(F)c1)C1(F)CN(C2CCCC2)C1 [Compound 3051, 1-cyclopentyl-N-((5-(5-(difluoromethyl)-1,3,4-oxadiazol-2-yl)pyridin-2-yl)methyl)-3-fluoro-N-(3-fluorophenyl)azetidine-3-carboxamide]
